The assay addresses T1, Cdk2(2-298) (Homo sapiens, UniProt P24941).
T1 construct: Biotinylated N-terminal avi-tagged Cdk2(2-298) or Cdk1(1-297) was immobilized
Briefly: Surface Plasmon Resonance (SPR) compound interaction, Biacore 8K. It is filed as binding. The conditions noted are these: single-cycle kinetics (SCK, "S"), dissociation 1800 sec, read-out: Activity rating (KD). On the procedure:
Compound interaction was profiled using a Biacore 8K instrument (Cytiva). Biotinylated N-terminal avi-tagged Cdk2(2-298) or Cdk1(1-297) was immobilized on a series S sensor Chip SA at a capture level between 2500 RU and 3000 RU (Cdk2) or 7000 RU (Cdk1) in buffer (25 mM HEPES, 150 mM NaCl, 0.05% Tween20, pH 7.5). A compound dilution plate (8 concentrations, 3-fold dilution) in DMSO was prepared (100× assay concentration). From this plate, compound DMSO stock solution was transferred into buffer, yielding a final DMSO concentration of 1% in assay. The remaining buffer was supplemented with 1% DMSO. Compounds were injected in a series of increasing concentrations in multi-cycle kinetics (MCK, “M”) or single-cycle kinetics (SCK, “S”) mode at a flow rate of 30 μl/min for 120 sec and dissociation was profiled for 180 sec (MCK) or 1800 sec (SCK). Data were analysed using Biacore Insight Evaluation Software (Cytiva).
A general note: In SPR one partner is held on a chip, and binding of the other changes the refractive index at the surface.
As to `N[C@H]1CC[C@H](Nc2nccc(-c3cnccc3Oc3ccc(NS(=O)(=O)c4ccccc4)c(Br)c3)n2)CC1` [Compound 62, N-[4-[[3-[2-[(1r,4r)(4-Aminocyclohexyl)amino]pyrimidin-4-yl]-4-pyridyl]oxy]-2-bromophenyl] benzenesulfonamide], the dissociation constant (Kd) is 100 to 1000 nM.

With `COCCNCCNc1nccc(-c2cnccc2Oc2ccc(NS(=O)(=O)c3ccccc3Cl)cc2F)n1` [Compound 104], the Kd is 100 to 1000 nM.

For the compound `CC(C)(C)c1ccc(-c2ccnc(N[C@H]3CC[C@H](N)CC3)n2)c(Oc2ccc(NS(=O)(=O)c3ccccc3Cl)cc2F)c1` [Compound 11, N-[4-[2-[2-[(1r,4r)(4-Aminocyclohexyl)amino]pyrimidin-4-yl]-5-(1,1-dimethylethyl)phenoxy]-3-fluorophenyl] 2-chlorobenzenesulfonamide], the Kd is 11 to 100 nM.

Take `N[C@H]1CC[C@H](Nc2nccc(-c3cnccc3Oc3ccc(NS(=O)(=O)c4ccccc4F)cc3F)n2)CC1` [Compound 64, N-[4-[[3-[2-[(1r,4r)(4-Aminocyclohexyl)amino]pyrimidin-4-yl]-4-pyridyl]oxy]-3-fluorophenyl] 2-fluorobenzenesulfonamide]: the Kd is no more than 10 nM.

As for `N[C@H]1CC[C@H](Nc2nccc(-c3cnccc3Oc3ccc(NS(=O)(=O)c4ccc(CO)cc4F)c(F)c3)n2)CC1` [Compound 82, N-82[4-[[3-[2-(1r,4r)[(4-Aminocyclohexyl)amino]pyrimidin-4-yl]-4-pyridyl]oxy]-2-fluorophenyl] 2-fluoro-4-(hydroxymethyl)benzenesulfonamide], the Kd fell in the range of 100 to 1000 nM.

For `CCc1ccc(-c2ccnc(N[C@H]3CC[C@H](N)CC3)n2)c(Oc2ccc(NS(=O)(=O)c3ccccc3Cl)cc2F)c1` [Compound 17, N-[4-[2-[2-[(1r,4r)(4-Aminocyclohexyl)amino]pyrimidin-4-yl]-5-ethylphenoxy]-3-fluorophenyl] 2-chlorobenzenesulfonamide], the Kd lay within 11 to 100 nM.

For the compound `O=S(=O)(Nc1ccc(Oc2ccncc2-c2ccnc(NC3COC3)n2)c(F)c1)c1ccccc1Cl` [Compound 89], the Kd fell in the range of 11 to 100 nM.

As for `COc1ccc(S(=O)(=O)Nc2ccc(Oc3ccncc3-c3ccnc(N[C@H]4CC[C@H](N)CC4)n3)c(F)c2)c(C)c1C` [Compound 43, N-[4-[[3-[2-[(1r,4r)(4-aminocyclohexyl)amino]pyrimidin-4-yl]-4-pyridyl]oxy]-3-fluorophenyl] 4-methoxy-2,3-dimethyl-benzenesulfonamide], the Kd lay within 11 to 100 nM.

With `N[C@H]1CC[C@H](Nc2nccc(-c3cnccc3Oc3ccc(NS(=O)(=O)c4csc5ccccc45)cc3F)n2)CC1` [Compound 31, N-(4-((3-(2-((1r,4r)-4-aminocyclohexyl)amino)pyrimidin-4-yl)pyridin-4-yloxy)-3-fluorophenyl) benzo[b]thiophene-3-sulfonamide], the Kd lay within 11 to 100 nM.

For the compound `N[C@H]1CC[C@H](Nc2nccc(-c3cnccc3Oc3ccc(NS(=O)(=O)c4cccc5c4CCCC5)cc3F)n2)CC1` [Compound 57], the equilibrium dissociation constant (Kd) lay in the range of 100 to 1000 nM.

Regarding `N[C@H]1CC[C@H](Nc2nccc(-c3cnccc3Oc3ccc(NS(=O)(=O)c4cccc5cccnc45)cc3F)n2)CC1` [Compound 42, N-[4-[[3-[2-[(1r,4r)(4-aminocyclohexyl)amino]pyrimidin-4-yl]-4-pyridyl]oxy]-3-fluorophenyl]quinoline-8-sulfonamide], the Kd is 100 to 1000 nM.

For the compound `O=S(=O)(Nc1ccc(Sc2ncccc2-c2ccnc(N[C@H]3CCCNC3)n2)c(F)c1)c1ccccc1Cl` [Compound 109, N-[3-Fluoro-4-[[3-[2-[[(3S)-3-piperidyl]amino]pyrimidin-4-yl]-2-pyridyl]thio]phenyl] 2-chlorobenzenesulfonamide], the Kd is no more than 10 nM.

For `N[C@H]1CC[C@H](Nc2nccc(-c3cnccc3Oc3ccc(NS(=O)(=O)Cc4ccccc4)c(Cl)c3)n2)CC1` [Compound 51, N-[4-[[3-[2-[(1r,4r)(4-Aminocyclohexyl)amino]pyrimidin-4-yl]-4-pyridyl]oxy]-2-chlorophenyl] phenylmethanesulfonamide], the Kd was in the range of 1000 to 5000 nM.

Take `N[C@H]1CC[C@H](Nc2nccc(-c3cnccc3Oc3ccc(NS(=O)(=O)c4ccccc4)c(F)c3)n2)CC1` [Compound 46, N-[4-[[3-[2-[(1r,4r)(4-Aminocyclohexyl)amino]pyrimidin-4-yl]-4-pyridyl]oxy]-2-fluorophenyl] benzenesulfonamide]: the Kd is 100 to 1000 nM.

Take `N[C@H]1CC[C@H](Nc2nccc(-c3cc(C(F)(F)F)ccc3Oc3ccc(NS(=O)(=O)c4ccccc4Cl)cc3F)n2)CC1` [Compound 8, N-[4-[2-[2-[(1r,4r)(4-Aminocyclohexyl)amino]pyrimidin-4-yl]-4-(trifluoromethyl)phenoxy]-3-fluorophenyl] 2-chlorobenzenesulfonamide]: the Kd lay within 11 to 100 nM.

Consider `N[C@H]1CC[C@H](Nc2nccc(-c3cnccc3Oc3cc(Cl)c(NS(=O)(=O)c4ccccc4Cl)cc3F)n2)CC1` [Compound 47, N-[4-[[3-[2-[(1r,4r)(4-Aminocyclohexyl)amino]pyrimidin-4-yl]-4-pyridyl]oxy]-2-chloro-5-fluorophenyl] 2-chlorobenzenesulfonamide], for which the equilibrium dissociation constant (Kd) is no more than 10 nM.

Turning to `C#Cc1ccccc1S(=O)(=O)Nc1ccc(Oc2ccncc2-c2ccnc(N[C@H]3CC[C@H](N)CC3)n2)c(F)c1` [Compound 73, N-[4-[[3-[2-(1r,4r)[(4-Aminocyclohexyl)amino]pyrimidin-4-yl]-4-pyridyl]oxy]-3-fluorophenyl] 2-ethynylbenzenesulfonamide], the Kd lay in the range of 11 to 100 nM.

`O=S(=O)(Nc1ccc(Oc2ccncc2-c2ccnc(NC3CNC3)n2)c(F)c1)c1ccccc1Cl` [Compound 98]: the Kd was 11 to 100 nM.

Take `N[C@H]1CC[C@H](Nc2nccc(-c3cnccc3Oc3cc(Cl)c(NS(=O)(=O)Cc4ccccc4)cc3F)n2)CC1` [Compound 49, N-[4-[[3-[2-[(1r,4r)(4-Aminocyclohexyl)amino]pyrimidin-4-yl]-4-pyridyl]oxy]-2-chloro-5-fluorophenyl] phenylmethanesulfonamide]: the Kd was in the range of 100 to 1000 nM.

Consider `N[C@H]1CC[C@H](Nc2nccc(-c3cnccc3Oc3ccc(NS(=O)(=O)c4ccccc4Cl)c(F)c3)n2)CC1` [Compound 79, N-[4-[[3-[2-[(1r,4r)(4-Aminocyclohexyl)amino]pyrimidin-4-yl]-4-pyridyl]oxy]-2-fluorophenyl] 2-chlorobenzenesulfonamide], for which the Kd was no more than 10 nM.

Regarding `O=S(=O)(Nc1ccc(Sc2ncccc2-c2ccnc(N[C@H]3CCCNC3)n2)c(F)c1)c1cccc2ccccc12` [Compound 113, N-[3-fluoro-4-[[3-[2-[[(3S)-3-piperidyl]amino]pyrimidin-4-yl]-2-pyridyl]sulfanyl]phenyl] naphthalene-1-sulfonamide], the Kd lay in the range of 100 to 1000 nM.

Consider `O=S(=O)(Nc1ccc(Oc2ccncc2-c2ccnc(NC3CN(CCO)C3)n2)c(F)c1)c1ccccc1Cl` [Compound 106], for which the Kd lay in the range of 100 to 1000 nM.

For the compound `COc1ccccc1S(=O)(=O)Nc1ccc(Oc2ccncc2-c2ccnc(N[C@H]3CC[C@H](N)CC3)n2)c(F)c1` [Compound 27, N-(4-((3-(2-((1r,4r)-4-aminocyclohexyl)amino)pyrimidin-4-yl)pyridin-4-yloxy)-3-fluorophenyl) 2-methoxybenzenesulfonamide], the dissociation constant (Kd) fell in the range of 11 to 100 nM.

As for `N[C@H]1CC[C@H](Nc2nccc(-c3ccccc3Oc3ccc(NS(=O)(=O)c4ccccc4Cl)cc3F)n2)CC1` [Compound 3, N-[4-[2-[2-[(1r,4r)(4-Aminocyclohexyl)amino]pyrimidin-4-yl]phenoxy]-3-fluorophenyl] 2-chlorobenzenesulfonamide], the dissociation constant (Kd) is 11 to 100 nM.

On to `O=S(=O)(Nc1ccc(Oc2ncncc2-c2ccnc(N[C@H]3CCCNC3)n2)c(F)c1)c1ccccc1` [Compound 129, N-[3-fluoro-4-[5-[2-[[(3S)-3-piperidyl]amino]pyrimidin-4-yl]pyrimidin-4-yl]oxy-phenyl] benzenesulfonamide], for which the Kd was 100 to 1000 nM.

With `N[C@H]1CC[C@H](Nc2nccc(-c3cnccc3Oc3ccc(NS(=O)(=O)C45CC6CC(CC(C6)C4)C5)cc3F)n2)CC1` [Compound 74, N-[4-[[3-[2-(1r,4r)[(4-Aminocyclohexyl)amino]pyrimidin-4-yl]-4-pyridyl]oxy]-3-fluorophenyl] adamant-1-ylsulfonamide], the Kd is greater than 5000 nM.

As to `O=S(=O)(Nc1ccc(Oc2ccncc2-c2ccnc(N[C@H]3CCCNC3)n2)c(F)c1)c1cccc2ccccc12` [Compound 70, N-[3-Fluoro-4-[[3-[2-[[(3S)-3-piperidyl]amino]pyrimidin-4-yl]-4-pyridyl]oxy]phenyl] naphthalene-1-sulfonamide], the Kd is no more than 10 nM.

Turning to `N#Cc1ccc(Oc2ccc(NS(=O)(=O)c3ccccc3Cl)cc2F)c(-c2ccnc(N[C@H]3CC[C@H](N)CC3)n2)c1` [Compound 10, N-[4-[2-[2-[(1r,4r)(4-Aminocyclohexyl)amino]pyrimidin-4-yl]-4-cyanophenoxy]-3-fluorophenyl] 2-chlorobenzenesulfonamide], the dissociation constant (Kd) is 11 to 100 nM.

On to `COCCOCCNc1nccc(-c2cnccc2Oc2ccc(NS(=O)(=O)c3ccccc3Cl)cc2F)n1` [Compound 91], for which the Kd was in the range of 100 to 1000 nM.

Take `C=Cc1ccc(-c2ccnc(N[C@H]3CC[C@H](N)CC3)n2)c(Oc2ccc(NS(=O)(=O)c3ccccc3Cl)cc2F)c1` [Compound 21, N-[4-[2-[2-[(1r,4r)(4-Aminocyclohexyl)amino]pyrimidin-4-yl]-5-ethenylphenoxy]-3-fluorophenyl] 2-chlorobenzenesulfonamide]: the dissociation constant (Kd) is 11 to 100 nM.

For orientation: Kd means the free concentration of one partner at which half of the binding sites on the other are occupied at equilibrium, for simple one-to-one binding.

These data come from patent US20260234112A1, “COMPOUNDS, COMPOSITIONS, AND METHODS OF USE THEREOF” (Type6 Therapeutics, Inc., priority 2023, published 2026).
